Source: ChEMBL document CHEMBL1134903, “Synthesis and SAR of azalide 3,6-ketal aromatic derivatives as potent Gram-positive and Gram-negative antibacterial agents” (Bioorg Med Chem Lett, 2002)
Converted amounts (≈) assume the structure as drawn.

Experiments:
Type in all cases: functional
[1] = system: Staphylococcus aureus; assay: Effective dose required to inhibit Staphylococcus aureus intraperitoneal (IP) infection model
[2] = system: Escherichia coli; assay: Minimum inhibitory concentration against Escherichia coli
[3] = system: Staphylococcus aureus; assay: Colony forming units of Staphylococcus aureus intramammary infection (IMI) model was determined at a dose of 15 mg/kg
[4] = system: Pasteurella multocida; assay: Minimum inhibitory concentration against Pasteurella multocida
[5] = system: Staphylococcus aureus; assay: Minimum inhibitory concentration against Staphylococcus aureus

Row | Compound | ED50 [1] [mg/kg] | MIC [2] [µg/mL] | Log CFU [3] | MIC [4] [µg/mL] | MIC [5] [µg/mL]
1 | CC[C@H]1OC(=O)[C@H](C)[C@H]2OC3(CCN(C(=O)c4ccccn4)CC3)O[C@](C)(C[C@@H](C)CN[C@H](C)[C@@H](O)[C@]1(C)O)[C@H](O[C@@H]1O[C@H](C)C[C@H](N(C)C)[C@H]1O)[C@H]2C | 7.6 | 1.56 (≈ 2.04 µM) | 3.5 | 0.1 (≈ 0.131 µM) | 0.78 (≈ 1.02 µM)
2 | CC[C@H]1OC(=O)[C@H](C)[C@H]2OC3(CCN(CCc4ccc5ccccc5n4)CC3)O[C@](C)(C[C@@H](C)CN[C@H](C)[C@@H](O)[C@]1(C)O)[C@H](O[C@@H]1O[C@H](C)C[C@H](N(C)C)[C@H]1O)[C@H]2C | 22 | 0.78 (≈ 0.959 µM) | 5.2 | 0.03 (≈ 0.0369 µM) | 0.2 (≈ 0.246 µM)
3 | CC[C@H]1OC(=O)[C@H](C)[C@H]2OC3(CCN(C(=O)c4ccc5ccccc5n4)CC3)O[C@](C)(C[C@@H](C)CN[C@H](C)[C@@H](O)[C@]1(C)O)[C@H](O[C@@H]1O[C@H](C)C[C@H](N(C)C)[C@H]1O)[C@H]2C | 14 | 1.56 (≈ 1.92 µM) | 1.9 | 0.05 (≈ 0.0615 µM) | 0.2 (≈ 0.246 µM)
4 | CC[C@H]1OC(=O)[C@H](C)[C@H]2OC3(CCN(C(=O)c4ccc[nH]4)CC3)O[C@](C)(C[C@@H](C)CN[C@H](C)[C@@H](O)[C@]1(C)O)[C@H](O[C@@H]1O[C@H](C)C[C@H](N(C)C)[C@H]1O)[C@H]2C | 19 | 0.78 (≈ 1.04 µM) | 4.7 | 0.05 (≈ 0.0666 µM) | 0.78 (≈ 1.04 µM)
5 | CC[C@H]1OC(=O)[C@H](C)[C@H]2OC3(CCN(C(=O)c4cccc(OC)c4)CC3)O[C@](C)(C[C@@H](C)CN[C@H](C)[C@@H](O)[C@]1(C)O)[C@H](O[C@@H]1O[C@H](C)C[C@H](N(C)C)[C@H]1O)[C@H]2C | 20 | 3.13 (≈ 3.95 µM) | 5.6 | 0.1 (≈ 0.126 µM) | 0.78 (≈ 0.985 µM)
6 | CC[C@H]1OC(=O)[C@H](C)[C@H]2OC3(CCN(Cc4cccnc4)CC3)O[C@](C)(C[C@@H](C)CN[C@H](C)[C@@H](O)[C@]1(C)O)[C@H](O[C@@H]1O[C@H](C)C[C@H](N(C)C)[C@H]1O)[C@H]2C | < 5 | 0.78 (≈ 1.04 µM) | 1.3 | 0.03 (≈ 0.0401 µM) | 0.39 (≈ 0.521 µM)
7 | CC[C@H]1OC(=O)[C@H](C)[C@H]2OC3(CCN(CCc4ccccc4)CC3)O[C@](C)(C[C@@H](C)CN(C)[C@H](C)[C@@H](O)[C@]1(C)O)[C@H](O[C@@H]1O[C@H](C)C[C@H](N(C)C)[C@H]1O)[C@H]2C | > 20 | 0.075 (≈ 0.0966 µM) | 7.3 | 0.02 (≈ 0.0258 µM) | 
8 | CC[C@H]1OC(=O)[C@H](C)[C@H]2OC3(CCN(C(=O)c4cnccn4)CC3)O[C@](C)(C[C@@H](C)CN[C@H](C)[C@@H](O)[C@]1(C)O)[C@H](O[C@@H]1O[C@H](C)C[C@H](N(C)C)[C@H]1O)[C@H]2C | 6.1 | 1.56 (≈ 2.04 µM) | 1.3 | 0.1 (≈ 0.131 µM) | 1.56 (≈ 2.04 µM)
9 | CC[C@H]1OC(=O)[C@H](C)[C@H]2OC3(CCN(C(=O)c4ccoc4)CC3)O[C@](C)(C[C@@H](C)CN[C@H](C)[C@@H](O)[C@]1(C)O)[C@H](O[C@@H]1O[C@H](C)C[C@H](N(C)C)[C@H]1O)[C@H]2C | 11 | 0.78 (≈ 1.04 µM) | 2.6 | 0.05 (≈ 0.0665 µM) | 0.78 (≈ 1.04 µM)
10 | CC[C@H]1OC(=O)[C@H](C)[C@H]2OC3(CCN(Cc4ccccn4)CC3)O[C@](C)(C[C@@H](C)CN[C@H](C)[C@@H](O)[C@]1(C)O)[C@H](O[C@@H]1O[C@H](C)C[C@H](N(C)C)[C@H]1O)[C@H]2C | < 5 | 0.2 (≈ 0.267 µM) | 1.1 | 0.03 (≈ 0.0401 µM) | 0.6 (≈ 0.801 µM)
11 | CC[C@H]1OC(=O)[C@H](C)[C@H]2OC3(CCN(C(=O)c4cccnc4)CC3)O[C@](C)(C[C@@H](C)CN[C@H](C)[C@@H](O)[C@]1(C)O)[C@H](O[C@@H]1O[C@H](C)C[C@H](N(C)C)[C@H]1O)[C@H]2C | 6.4 | 3.13 (≈ 4.1 µM) | 3.2 | 0.1 (≈ 0.131 µM) | 1.56 (≈ 2.04 µM)
12 | CC[C@H]1OC(=O)[C@H](C)[C@H]2OC3(CCN(C(=O)c4cnc5ccccc5c4)CC3)O[C@](C)(C[C@@H](C)CN[C@H](C)[C@@H](O)[C@]1(C)O)[C@H](O[C@@H]1O[C@H](C)C[C@H](N(C)C)[C@H]1O)[C@H]2C | 13 | 3.13 (≈ 3.85 µM) | 3.3 | 0.1 (≈ 0.123 µM) | 0.39 (≈ 0.48 µM)
13 | CC[C@H]1OC(=O)[C@H](C)[C@H]2OC3(CCN(C(=O)c4ccccc4)CC3)O[C@](C)(C[C@@H](C)CN[C@H](C)[C@@H](O)[C@]1(C)O)[C@H](O[C@@H]1O[C@H](C)C[C@H](N(C)C)[C@H]1O)[C@H]2C | 20 | 1.56 (≈ 2.05 µM) | 2.9 | 0.1 (≈ 0.131 µM) | 0.78 (≈ 1.02 µM)
14 | CC[C@H]1OC(=O)[C@H](C)[C@H]2OC3(CCN(CCc4ccc(NC(C)=O)cc4)CC3)O[C@](C)(C[C@@H](C)CN(C)[C@H](C)[C@@H](O)[C@]1(C)O)[C@H](O[C@@H]1O[C@H](C)C[C@H](N(C)C)[C@H]1O)[C@H]2C | 9.6 | 0.39 (≈ 0.468 µM) | 9.7 | 0.05 (≈ 0.06 µM) | 
15 | CC[C@H]1OC(=O)[C@H](C)[C@H]2OC3(CCN(C(=O)c4cccn4C)CC3)O[C@](C)(C[C@@H](C)CN[C@H](C)[C@@H](O)[C@]1(C)O)[C@H](O[C@@H]1O[C@H](C)C[C@H](N(C)C)[C@H]1O)[C@H]2C | 19 | 1.56 (≈ 2.04 µM) | 2.4 | 0.1 (≈ 0.131 µM) | 0.78 (≈ 1.02 µM)
16 | CC[C@H]1OC(=O)[C@H](C)[C@H]2OC3(CCN(C(=O)c4ccco4)CC3)O[C@](C)(C[C@@H](C)CN[C@H](C)[C@@H](O)[C@]1(C)O)[C@H](O[C@@H]1O[C@H](C)C[C@H](N(C)C)[C@H]1O)[C@H]2C | 12 | 1.56 (≈ 2.07 µM) | 0.4 | 0.05 (≈ 0.0665 µM) | 0.78 (≈ 1.04 µM)
17 | CC[C@H]1OC(=O)[C@H](C)[C@H]2OC3(CCN(C(=O)c4cccc(O)n4)CC3)O[C@](C)(C[C@@H](C)CN[C@H](C)[C@@H](O)[C@]1(C)O)[C@H](O[C@@H]1O[C@H](C)C[C@H](N(C)C)[C@H]1O)[C@H]2C | 19 | 6.25 (≈ 8.02 µM) | 9.7 | 0.3 (≈ 0.385 µM) | 3.13 (≈ 4.02 µM)
18 | CC[C@H]1OC(=O)[C@H](C)[C@H]2OC3(CCN(C(=O)c4cccnc4Cl)CC3)O[C@](C)(C[C@@H](C)CN[C@H](C)[C@@H](O)[C@]1(C)O)[C@H](O[C@@H]1O[C@H](C)C[C@H](N(C)C)[C@H]1O)[C@H]2C | 9.4 | 3.13 (≈ 3.93 µM) | 4.4 | 0.1 (≈ 0.125 µM) | 1.56 (≈ 1.96 µM)
19 | CC[C@H]1OC(=O)[C@H](C)[C@H]2OC3(CCN(Cc4ccccn4)CC3)O[C@](C)(C[C@@H](C)CN(C)[C@H](C)[C@@H](O)[C@]1(C)O)[C@H](O[C@@H]1O[C@H](C)C[C@H](N(C)C)[C@H]1O)[C@H]2C | 17 | 0.2 (≈ 0.262 µM) | 1.9 | 0.03 (≈ 0.0393 µM) | 0.78 (≈ 1.02 µM)
20 | CC[C@H]1OC(=O)[C@H](C)[C@H]2OC3(CCN(C(=O)c4cccnc4)CC3)O[C@](C)(C[C@@H](C)CN(C)[C@H](C)[C@@H](O)[C@]1(C)O)[C@H](O[C@@H]1O[C@H](C)C[C@H](N(C)C)[C@H]1O)[C@H]2C | 10 | 3.13 (≈ 4.03 µM) | 2.6 | 0.1 (≈ 0.129 µM) | 1.56 (≈ 2.01 µM)
21 | CC[C@H]1OC(=O)[C@H](C)[C@H]2OC3(CCN(C(=O)c4ccccn4)CC3)O[C@](C)(C[C@@H](C)CN(C)[C@H](C)[C@@H](O)[C@]1(C)O)[C@H](O[C@@H]1O[C@H](C)C[C@H](N(C)C)[C@H]1O)[C@H]2C | 12 | 1.56 (≈ 2.01 µM) | 2.9 | 0.1 (≈ 0.129 µM) | 1.56 (≈ 2.01 µM)
22 | CC[C@H]1OC(=O)[C@H](C)[C@H]2OC3(CCN(C(=O)c4ccc5ccccc5n4)CC3)O[C@](C)(C[C@@H](C)CN(C)[C@H](C)[C@@H](O)[C@]1(C)O)[C@H](O[C@@H]1O[C@H](C)C[C@H](N(C)C)[C@H]1O)[C@H]2C | > 20 | 6.25 (≈ 7.56 µM) | 9.7 | 0.1 (≈ 0.121 µM) | 0.39 (≈ 0.472 µM)
23 | CC[C@H]1OC(=O)[C@H](C)[C@H]2OC3(CCN(CCc4ccc(Cl)cc4)CC3)O[C@](C)(C[C@@H](C)CN(C)[C@H](C)[C@@H](O)[C@]1(C)O)[C@H](O[C@@H]1O[C@H](C)C[C@H](N(C)C)[C@H]1O)[C@H]2C | > 20 | 0.2 (≈ 0.247 µM) | 9.7 | 0.03 (≈ 0.037 µM) | 0.39 (≈ 0.481 µM)
